These compounds were tested on TLR7 (assay: TLR-induced cytokine release in human peripheral blood mononuclear cells (PBMC), TNF-alpha ELISA). Conditions: 18 hours incubation, TLR7 ligand, TNF-alpha by ELISA, read-out: EC50 (TNF-α TLR7).
Assay type: cell-based
Description: TLR-induced Cytokine Release in Human “Peripheral Blood Mononuclear Cells” (PBMC)
PBMCs isolated from human whole blood are stimulated using a TLR ligand.
The cytokine determination is carried out by means of ELISA kits; a proliferation/cell metabolism determination is carried out using Alamar Blue.
For the cell preparation, about 200 ml of blood are treated with an anticoagulant (e.g. citrate Monovettes). Per Leucosep tube, 15 ml of Histopaque (room temperature, RT) are poured in and forced downwards through the inserted frit by brief initial centrifugation (one minute at 1000×g, RT). 20 ml of blood are added to the tubes prepared in this way and centrifuged at 800×g for 15 minutes (RT). After centrifugation, the following layered arrangement results from the top to the bottom:
plasma-PBMC-Histopaque-filter disc-Histopaque-erythrocytes and granulocytes. The supernatant plasma is aspirated. The PBMC are transferred together with the underlying Histopaque to a new 50 ml tube, the contents of two Leucosep tubes always being added to one 50 ml tube. The 50 ml tubes are then filled to 50 ml with PBS. This cell suspension is centrifuged at 300×g (RT) for 10 minutes.
The liquid supernatant is tipped off and the cell pellet is resuspended with a little PBS and subsequently filled to 50 ml with PBS. This washing step is repeated twice. The resulting pellet is taken up in a defined volume of medium (with additives). For the testing of the substances, PBMC are incubated for 18 hours with titrated concentrations of the test substances, e.g. in the presence or absence of TLR7 or TLR9 ligands. On the next day, the supernatants are investigated for the content of TNF-alpha or other cyto- or chemokines by means of specific ELISA. The metabolic activity of the treated cells is determined with the aid of Alamar Blue.
In the case of CN1CCc2c(sc(NC(=O)c3csc(-c4ccc5c(c4)CCO5)n3)c2C(N)=O)C1 [Example 2.5, 2-{[2-(2,3-Dihydrobenzofuran-5-yl)thiazole-4-carbonyl]amino}-6-methyl-4,5,6,7-tetrahydrothieno[2,3-c]pyridine-3-carboxamide], the EC50 is reported as 1100 nM. In the case of Cn1ncc(NC(=O)c2csc(-c3ccc4c(c3)CCO4)n2)c1C(N)=O [Example 2.1, N-[5-(Aminocarbonyl)-1-methyl-1H-pyrazol-4-yl]-2-(2,3-dihydro-5-benzofuranyl)-4-thiazolecarboxamide], the EC50 is reported as 1200 nM. CS(=O)(=O)c1cccc(-c2nc(C(=O)Nc3ccccc3C(N)=O)cs2)c1 [Example 3.2, N-[2-(Aminocarbonyl)phenyl]-2-(3-methylsulphonylphenyl)-4-thiazole-carboxamide] showed an EC50 of 3400 nM. Compound COc1ccc(-c2nc(C(=O)Nc3ccccc3C(N)=O)cs2)cc1F [Example 3.4, N-[2-(Aminocarbonyl)phenyl]-2-(3-fluoro-4-methoxyphenyl)-4-thiazole-carboxamide] has an EC50 of 120 nM. For Cn1cc(NC(=O)c2csc(-c3cccc(S(C)(=O)=O)c3)n2)c(C(N)=O)n1 [Example 1.1, 2-(3-Methanesulphonylphenyl)thiazole-4-(3-carbamoyl-1-methyl-1H-pyrazol-4-yl)carboxamide], the EC50 was 85 nM. NC(=O)c1ccccc1NC(=O)c1csc(-c2ccc3c(c2)OCO3)n1 [Example 3.1, N-[2-(Aminocarbonyl)phenyl]-2-(3,4-methylenedioxyphenyl)-4-thiazolecarboxamide] gave an EC50 of 300 nM.
